Laboratory results: patent EP0413544A2, “Purine derivatives, process for their preparation, pharmaceutical compositions and intermediates” (Beecham Group p.l.c., priority 1989, dated 1991)
Like-named read-outs stand apart in the source and are kept apart here.

Assay: Blood concentration of E1 after oral dosing of the compounds to mice (HPLC)
Assay type: in vivo
Conditions: fasted female Balb/c mice, pooled blood of 3 mice
Method: Compounds were administered as single doses of 0.2mmole/kg in 0.1ml of 1% carboxymethyl cellulose by oral gavage to female Balb/c mice weighing 20g. Food was withheld from the mice for 18 hours prior to the start of the experiment. Blood was collected by cardiac puncture using heparinised syringes 15, 60 and 180 mins after dosing. Equal volumes (0.2ml) from 3 mice were pooled at each time point and 0.6ml of ice-cold ethanol was added. Following chilling at -20°C and centrifugation, 0.5ml of supernatant was dried under reduced pressure. The sample was then reconstituted with 0.5ml of 0.4M NH₄OAc (pH 6.0) and analysed by HPLC.

concentration (Expt. 1, 15 min after single oral gavage dose of 0.2mmole/kg in 1% carboxymethyl cellulose, read-out: 9-(3-Hydroxypropoxy)guanine (E1) conc. (µM) in blood at time (min) after dosing: 15): 5.2 µM
concentration (Expt. 1, 60 min after single oral gavage dose of 0.2mmole/kg in 1% carboxymethyl cellulose, read-out: 9-(3-Hydroxypropoxy)guanine (E1) conc. (µM) in blood at time (min) after dosing: 60): 2 µM
concentration (Expt. 2, 15 min after single oral gavage dose of 0.2mmole/kg in 1% carboxymethyl cellulose, read-out: 9-(3-Hydroxypropoxy)guanine (E1) conc. (µM) in blood at time (min) after dosing: 15): 11 µM
concentration at 1 h (mouse, 200 umol/kg, Expt. 2, 60 min after single oral gavage dose of 0.2mmole/kg in 1% carboxymethyl cellulose, read-out: 9-(3-Hydroxypropoxy)guanine (E1) conc. (µM) in blood at time (min) after dosing: 60): 3.3 µM
SMILES: Nc1nc(O)c2ncn(OCCCO)c2n1 [Example E1, 9-(3-hydroxyprop-1-oxy)guanine]
